# Test results reported in publication doi:10.1101/2020.08.28.272054v2 (biorxiv, 2021).
# Key:
# Assay in all cases: ATPase activity, photometric phosphate release, Sf9 membranes
# Format in all cases: biochemical
# αCβ1 = αCβ1 (Oncopeltus fasciatus, UniProt A0A8S4MUF7)
# αCβ2 = αCβ2 (Oncopeltus fasciatus, UniProt A0A8S4MUF7)
# αCβ3 = αCβ3 (Oncopeltus fasciatus, UniProt A0A8S4MUF7)
# Sequence of αCβ3 (A0A8S4MUF7 1-1007): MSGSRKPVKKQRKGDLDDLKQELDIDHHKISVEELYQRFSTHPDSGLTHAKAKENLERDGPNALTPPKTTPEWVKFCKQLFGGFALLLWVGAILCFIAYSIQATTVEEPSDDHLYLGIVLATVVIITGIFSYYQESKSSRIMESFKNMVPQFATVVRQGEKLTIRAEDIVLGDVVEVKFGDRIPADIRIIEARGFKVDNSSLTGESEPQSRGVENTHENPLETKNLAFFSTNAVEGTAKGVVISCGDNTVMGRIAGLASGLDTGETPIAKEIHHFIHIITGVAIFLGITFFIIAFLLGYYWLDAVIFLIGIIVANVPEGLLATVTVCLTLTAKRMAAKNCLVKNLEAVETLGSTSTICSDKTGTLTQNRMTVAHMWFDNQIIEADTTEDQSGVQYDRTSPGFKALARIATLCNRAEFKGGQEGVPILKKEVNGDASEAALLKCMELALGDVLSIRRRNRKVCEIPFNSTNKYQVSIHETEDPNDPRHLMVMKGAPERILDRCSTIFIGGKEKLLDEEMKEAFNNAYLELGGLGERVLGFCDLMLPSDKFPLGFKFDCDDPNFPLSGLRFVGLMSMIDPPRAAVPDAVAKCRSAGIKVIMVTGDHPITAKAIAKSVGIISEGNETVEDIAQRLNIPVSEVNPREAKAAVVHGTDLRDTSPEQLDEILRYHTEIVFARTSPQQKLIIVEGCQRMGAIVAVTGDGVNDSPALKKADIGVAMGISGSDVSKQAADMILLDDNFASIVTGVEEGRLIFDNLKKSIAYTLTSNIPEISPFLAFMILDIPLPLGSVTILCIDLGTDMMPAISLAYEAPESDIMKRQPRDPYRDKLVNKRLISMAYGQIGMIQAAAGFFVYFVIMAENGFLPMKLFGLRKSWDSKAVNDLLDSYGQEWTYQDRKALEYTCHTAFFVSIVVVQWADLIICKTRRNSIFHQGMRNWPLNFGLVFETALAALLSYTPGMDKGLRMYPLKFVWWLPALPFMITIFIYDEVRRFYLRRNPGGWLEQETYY
# Sequence of αCβ3 (A0A8S4MV14 1-314 partner): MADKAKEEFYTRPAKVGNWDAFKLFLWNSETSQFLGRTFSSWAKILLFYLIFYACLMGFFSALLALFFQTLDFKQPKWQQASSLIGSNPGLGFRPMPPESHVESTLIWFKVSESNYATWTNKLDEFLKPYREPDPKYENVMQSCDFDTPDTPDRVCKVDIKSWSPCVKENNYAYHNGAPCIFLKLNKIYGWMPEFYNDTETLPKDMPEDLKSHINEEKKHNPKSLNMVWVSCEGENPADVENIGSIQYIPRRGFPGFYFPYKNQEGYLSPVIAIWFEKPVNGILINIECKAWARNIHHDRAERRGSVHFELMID
# Sequence of αCβ1 (A0A8S4MUF7 1-1007): as the sequence (A0A8S4MUF7 1-1007) above
# Sequence of αCβ1 (A0A8S4MTC7 1-330 partner): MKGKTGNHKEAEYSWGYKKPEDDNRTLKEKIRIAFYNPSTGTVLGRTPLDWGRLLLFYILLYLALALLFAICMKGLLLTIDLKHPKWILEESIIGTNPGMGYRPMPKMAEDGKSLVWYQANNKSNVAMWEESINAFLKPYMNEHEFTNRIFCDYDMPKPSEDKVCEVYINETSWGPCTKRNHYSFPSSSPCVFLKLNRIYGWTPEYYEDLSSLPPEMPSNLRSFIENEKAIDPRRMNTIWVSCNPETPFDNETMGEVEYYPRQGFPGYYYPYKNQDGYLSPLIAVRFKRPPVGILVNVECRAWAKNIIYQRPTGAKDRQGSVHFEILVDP
# Sequence of αCβ2 (A0A8S4MUF7 1-1007): as the sequence (A0A8S4MUF7 1-1007) above
# Sequence of αCβ2 (A0A8S4MTQ8 1-322 partner): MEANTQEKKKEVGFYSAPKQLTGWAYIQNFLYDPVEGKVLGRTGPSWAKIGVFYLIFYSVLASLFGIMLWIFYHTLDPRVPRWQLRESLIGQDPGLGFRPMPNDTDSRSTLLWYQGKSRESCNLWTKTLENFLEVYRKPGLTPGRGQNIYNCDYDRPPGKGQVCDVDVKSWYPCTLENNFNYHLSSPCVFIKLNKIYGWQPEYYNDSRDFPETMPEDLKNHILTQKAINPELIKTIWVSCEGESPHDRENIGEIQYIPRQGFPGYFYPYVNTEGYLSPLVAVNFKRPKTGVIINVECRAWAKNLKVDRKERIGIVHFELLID
smiles,measurement,setting,value
C[C@@H]1O[C@@H](O[C@H]2C[C@@H](O)[C@]3(CO)[C@H]4[C@H](O)C[C@]5(C)[C@@H](C6=CC(=O)OC6)CC[C@]5(O)[C@@H]4CC[C@]3(O)C2)[C@H](O)[C@H](O)[C@H]1O [ouabain],IC50,αCβ1,427 µM
same,IC50,αCβ2,737 µM
same,IC50,αCβ3,758 µM
